Values joined by “and” are separate entries in the source; they are usually repeats but may differ in a detail not shown here. Identical values can stand only once.
Assay: relative permittivity at various frequencies (dimensionless); wn = mass fraction of the nth substance listed
Details: Liquid, direct capacitance:P =

O=C=O [carbon dioxide] + CCO
Details | relative permittivity
322.4 K, 11900 kPa, w2 = 0.1 | 1.94
322.4 K, 12200 kPa, w2 = 0.1 | 1.96
322.4 K, 13700 kPa, w2 = 0.1 | 2.01
322.4 K, 13900 kPa, w2 = 0.1 | 2.02
322.4 K, 15700 kPa, w2 = 0.1 | 2.06
322.4 K, 15800 kPa, w2 = 0.1 | 2.07
322.4 K, 16700 kPa, w2 = 0.1 | 2.09
322.4 K, 17100 kPa, w2 = 0.1 | 2.09
322.4 K, 17600 kPa, w2 = 0.1 | 2.11
322.4 K, 18600 kPa, w2 = 0.1 | 2.13
322.4 K, 19600 kPa, w2 = 0.1 | 2.14
322.4 K, 20600 kPa, w2 = 0.1 | 2.16
322.4 K, 21600 kPa, w2 = 0.1 | 2.18
322.4 K, 21700 kPa, w2 = 0.1 | 2.18
322.4 K, 22600 kPa, w2 = 0.1 | 2.19
322.4 K, 23600 kPa, w2 = 0.1 | 2.21
322.4 K, 24500 kPa, w2 = 0.1 | 2.22
322.4 K, 25500 kPa, w2 = 0.1 | 2.23
322.4 K, 26500 kPa, w2 = 0.1 | 2.24
322.4 K, 27500 kPa, w2 = 0.1 | 2.26
322.4 K, 28400 kPa, w2 = 0.1 | 2.27
322.4 K, 29900 kPa, w2 = 0.1 | 2.28
322.5 K, 10200 kPa, w2 = 0.05 | 1.53
322.5 K, 12100 kPa, w2 = 0.05 | 1.63
322.5 K, 13100 kPa, w2 = 0.05 | 1.66
322.5 K, 14200 kPa, w2 = 0.05 | 1.7
322.5 K, 14700 kPa, w2 = 0.05 | 1.7
322.5 K, 16000 kPa, w2 = 0.05 | 1.73
322.5 K, 16100 kPa, w2 = 0.05 | 1.73
322.5 K, 17200 kPa, w2 = 0.05 | 1.75
322.5 K, 18900 kPa, w2 = 0.05 | 1.78
322.5 K, 19500 kPa, w2 = 0.05 | 1.79
322.5 K, 20800 kPa, w2 = 0.05 | 1.8
322.5 K, 21800 kPa, w2 = 0.05 | 1.81
322.5 K, 22700 kPa, w2 = 0.05 | 1.82
322.5 K, 23600 kPa, w2 = 0.05 | 1.83
322.5 K, 24700 kPa, w2 = 0.05 | 1.84
322.5 K, 25800 kPa, w2 = 0.05 | 1.85
322.5 K, 26300 kPa, w2 = 0.05 | 1.86
322.5 K, 27900 kPa, w2 = 0.05 | 1.87
322.5 K, 28400 kPa, w2 = 0.05 | 1.87
322.5 K, 29300 kPa, w2 = 0.05 | 1.88
322.5 K, 29500 kPa, w2 = 0.05 | 1.88
322.5 K, 30300 kPa, w2 = 0.05 | 1.89
323.3 K, 9900 kPa, w2 = 0.152 | 2.06
323.3 K, 11000 kPa, w2 = 0.152 | 2.13
323.3 K, 12000 kPa, w2 = 0.152 | 2.18
323.3 K, 12700 kPa, w2 = 0.152 | 2.21
323.3 K, 13600 kPa, w2 = 0.152 | 2.25
323.3 K, 14700 kPa, w2 = 0.152 | 2.28
323.3 K, 15900 kPa, w2 = 0.152 | 2.31
323.3 K, 16900 kPa, w2 = 0.152 | 2.34
323.3 K, 17800 kPa, w2 = 0.152 | 2.36
323.3 K, 18600 kPa, w2 = 0.152 | 2.37
323.3 K, 18700 kPa, w2 = 0.152 | 2.38
323.3 K, 19500 kPa, w2 = 0.152 | 2.4
323.3 K, 20300 kPa, w2 = 0.152 | 2.41
323.3 K, 21700 kPa, w2 = 0.152 | 2.44
323.3 K, 22800 kPa, w2 = 0.152 | 2.45
323.3 K, 23100 kPa, w2 = 0.152 | 2.46
323.3 K, 23500 kPa, w2 = 0.152 | 2.47
323.3 K, 24500 kPa, w2 = 0.152 | 2.48
323.3 K, 25400 kPa, w2 = 0.152 | 2.5
323.3 K, 26500 kPa, w2 = 0.152 | 2.51
323.3 K, 28400 kPa, w2 = 0.152 | 2.54
323.3 K, 29500 kPa, w2 = 0.152 | 2.56
323.4 K, 9800 kPa, w2 = 0.212 | 2.59
323.4 K, 10600 kPa, w2 = 0.212 | 2.61
323.4 K, 11500 kPa, w2 = 0.212 | 2.67
323.4 K, 12400 kPa, w2 = 0.212 | 2.71
323.4 K, 13100 kPa, w2 = 0.212 | 2.75
323.4 K, 14100 kPa, w2 = 0.212 | 2.79
323.4 K, 15800 kPa, w2 = 0.212 | 2.85
323.4 K, 16600 kPa, w2 = 0.212 | 2.87
323.4 K, 17800 kPa, w2 = 0.212 | 2.9
323.4 K, 18800 kPa, w2 = 0.212 | 2.93
323.4 K, 19600 kPa, w2 = 0.212 | 2.95
323.4 K, 19700 kPa, w2 = 0.212 | 2.95
323.4 K, 21100 kPa, w2 = 0.212 | 2.98
323.4 K, 22900 kPa, w2 = 0.212 | 3.03
323.4 K, 23100 kPa, w2 = 0.212 | 3.03
323.4 K, 23200 kPa, w2 = 0.212 | 3.03
323.4 K, 24700 kPa, w2 = 0.212 | 3.06
323.4 K, 26000 kPa, w2 = 0.212 | 3.08
323.4 K, 26700 kPa, w2 = 0.212 | 3.1
323.4 K, 27900 kPa, w2 = 0.212 | 3.12
323.4 K, 29500 kPa, w2 = 0.212 | 3.14
323.4 K, 30600 kPa, w2 = 0.212 | 3.15
333.2 K, 10500 kPa, w2 = 0.05 | 1.32
333.2 K, 11200 kPa, w2 = 0.05 | 1.41
333.2 K, 11900 kPa, w2 = 0.212 | 2.38
333.2 K, 12100 kPa, w2 = 0.05 | 1.48
333.2 K, 12900 kPa, w2 = 0.212 | 2.45
333.2 K, 13000 kPa, w2 = 0.05 | 1.54 and 1.53
333.2 K, 13200 kPa, w2 = 0.212 | 2.47
333.2 K, 13700 kPa, w2 = 0.05 | 1.57
333.2 K, 14100 kPa, w2 = 0.212 | 2.52
333.2 K, 14700 kPa, w2 = 0.212 | 2.54
333.2 K, 14900 kPa, w2 = 0.05 | 1.62
333.2 K, 15800 kPa, w2 = 0.212 | 2.59
333.2 K, 15900 kPa, w2 = 0.05 | 1.64
333.2 K, 16200 kPa, w2 = 0.212 | 2.61
333.2 K, 16900 kPa, w2 = 0.212 | 2.62
333.2 K, 17000 kPa, w2 = 0.05 | 1.67
333.2 K, 17300 kPa, w2 = 0.212 | 2.64
333.2 K, 17600 kPa, w2 = 0.05 | 1.69
333.2 K, 18500 kPa, w2 = 0.212 | 2.68
333.2 K, 19100 kPa, w2 = 0.05 | 1.72
333.2 K, 19100 kPa, w2 = 0.212 | 2.7
333.2 K, 19200 kPa, w2 = 0.212 | 2.7
333.2 K, 19400 kPa, w2 = 0.05 | 1.72
333.2 K, 21000 kPa, w2 = 0.05 | 1.75
333.2 K, 21200 kPa, w2 = 0.212 | 2.75
333.2 K, 21300 kPa, w2 = 0.212 | 2.75
333.2 K, 21600 kPa, w2 = 0.05 | 1.75
333.2 K, 22900 kPa, w2 = 0.05 | 1.77
333.2 K, 23000 kPa, w2 = 0.212 | 2.79
333.2 K, 23100 kPa, w2 = 0.212 | 2.79
333.2 K, 23700 kPa, w2 = 0.05 | 1.78
333.2 K, 24900 kPa, w2 = 0.212 | 2.83
333.2 K, 25000 kPa, w2 = 0.05 | 1.8
333.2 K, 25000 kPa, w2 = 0.212 | 2.83
333.2 K, 25200 kPa, w2 = 0.212 | 2.83
333.2 K, 25500 kPa, w2 = 0.212 | 2.85
333.2 K, 26800 kPa, w2 = 0.212 | 2.86
333.2 K, 26900 kPa, w2 = 0.05 | 1.82
333.2 K, 27000 kPa, w2 = 0.212 | 2.87
333.2 K, 27400 kPa, w2 = 0.05 | 1.82
333.2 K, 28400 kPa, w2 = 0.212 | 2.9
333.2 K, 28800 kPa, w2 = 0.05 | 1.83
333.2 K, 29900 kPa, w2 = 0.05 | 1.84
333.2 K, 30600 kPa, w2 = 0.212 | 2.94
333.3 K, 11800 kPa, w2 = 0.152 | 1.99
333.3 K, 11900 kPa, w2 = 0.1 | 1.74
333.3 K, 12900 kPa, w2 = 0.1 | 1.81
333.3 K, 12900 kPa, w2 = 0.152 | 2.07
333.3 K, 13700 kPa, w2 = 0.1 | 1.86
333.3 K, 13800 kPa, w2 = 0.152 | 2.11
333.3 K, 14800 kPa, w2 = 0.1 | 1.9
333.3 K, 14800 kPa, w2 = 0.152 | 2.16
333.3 K, 15700 kPa, w2 = 0.1 | 1.94
333.3 K, 15900 kPa, w2 = 0.152 | 2.2
333.3 K, 16700 kPa, w2 = 0.1 | 1.96
333.3 K, 16700 kPa, w2 = 0.152 | 2.22
333.3 K, 17700 kPa, w2 = 0.152 | 2.26
333.3 K, 17800 kPa, w2 = 0.1 | 2
333.3 K, 18500 kPa, w2 = 0.1 | 2.01
333.3 K, 18700 kPa, w2 = 0.152 | 2.28
333.3 K, 19400 kPa, w2 = 0.1 | 2.03
333.3 K, 19600 kPa, w2 = 0.1 | 2.03
333.3 K, 19700 kPa, w2 = 0.152 | 2.31
333.3 K, 20600 kPa, w2 = 0.1 | 2.06
333.3 K, 20800 kPa, w2 = 0.152 | 2.33
333.3 K, 21700 kPa, w2 = 0.1 | 2.08
333.3 K, 22000 kPa, w2 = 0.152 | 2.36
333.3 K, 22600 kPa, w2 = 0.1 | 2.09
333.3 K, 22700 kPa, w2 = 0.152 | 2.37
333.3 K, 23500 kPa, w2 = 0.152 | 2.38
333.3 K, 23900 kPa, w2 = 0.1 | 2.11
333.3 K, 24500 kPa, w2 = 0.152 | 2.4
333.3 K, 24800 kPa, w2 = 0.1 | 2.12
333.3 K, 25200 kPa, w2 = 0.1 | 2.13
333.3 K, 25600 kPa, w2 = 0.1 | 2.14 and 2.13
333.3 K, 25600 kPa, w2 = 0.152 | 2.42
333.3 K, 26500 kPa, w2 = 0.1 | 2.15
333.3 K, 26600 kPa, w2 = 0.1 | 2.15
333.3 K, 26600 kPa, w2 = 0.152 | 2.43
333.3 K, 27200 kPa, w2 = 0.1 | 2.16
333.3 K, 27500 kPa, w2 = 0.1 | 2.16
333.3 K, 27600 kPa, w2 = 0.152 | 2.45
333.3 K, 27900 kPa, w2 = 0.1 | 2.16
333.3 K, 28400 kPa, w2 = 0.152 | 2.46
333.3 K, 28500 kPa, w2 = 0.1 | 2.17
333.3 K, 29200 kPa, w2 = 0.1 | 2.18
333.3 K, 29200 kPa, w2 = 0.152 | 2.47
333.3 K, 29900 kPa, w2 = 0.152 | 2.48

From the NIST ThermoML archive (doi:10.1021/je2003012)
